This is an account of results in patent US8680159B2, “Bradykinin 1 receptor modulating compounds” (Gruenenthal GmbH, priority 2010, dated 2014).

The target of experiment [1] is T1, B1R receptor of the rat (CHO K1 cells stably transfected with the B1R gene of the rat) (Rattus norvegicus, UniProt P97583).
T1 construct: expressed in transfected cells; host or cells: CHO K1 cells (Chinese hamster ovary), stably transfected
T1 sequence (P97583 1-337): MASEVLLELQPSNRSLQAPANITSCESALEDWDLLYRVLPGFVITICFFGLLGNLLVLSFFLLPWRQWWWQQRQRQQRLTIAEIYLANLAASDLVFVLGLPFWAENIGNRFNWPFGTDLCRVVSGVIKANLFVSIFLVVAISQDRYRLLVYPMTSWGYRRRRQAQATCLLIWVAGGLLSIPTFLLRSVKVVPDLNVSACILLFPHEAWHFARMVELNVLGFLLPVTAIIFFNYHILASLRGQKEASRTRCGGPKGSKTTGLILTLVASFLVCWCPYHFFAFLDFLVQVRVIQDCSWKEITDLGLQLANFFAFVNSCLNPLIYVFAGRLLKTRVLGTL
In words: Functional study on the bradykinin receptor 1 (B1R), Ca2+ fluorescence (Fluo-4) FLIPR/Novostar assay, rB1R cells. It counts as cell-based. The conditions noted are these: CHO-K1, 10 μM. Summed up:
(§1)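 Ca2+ influx (Fluo-4, peak fluorescence, λex 488/λem 540 nm) was measured in CHO K1 lines expressing rat or human B1R. After a 10 μM test-compound pre-addition scoring % activation, cells received EC80 agonist: Des-Arg9-bradykinin for rat, Lys-Des-Arg9-bradykinin for human. Antagonism was expressed as % of maximum inhibition, with IC50 from varied concentrations.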

The target in experiment [2] is T2, human B1R receptor (CHO K1 cells stably transfected with the human B1R gene) (Homo sapiens, UniProt P46663).
T2 construct: expressed in transfected cells; host or cells: CHO K1 cells (Chinese hamster ovary), stably transfected
T2 sequence (P46663 1-353): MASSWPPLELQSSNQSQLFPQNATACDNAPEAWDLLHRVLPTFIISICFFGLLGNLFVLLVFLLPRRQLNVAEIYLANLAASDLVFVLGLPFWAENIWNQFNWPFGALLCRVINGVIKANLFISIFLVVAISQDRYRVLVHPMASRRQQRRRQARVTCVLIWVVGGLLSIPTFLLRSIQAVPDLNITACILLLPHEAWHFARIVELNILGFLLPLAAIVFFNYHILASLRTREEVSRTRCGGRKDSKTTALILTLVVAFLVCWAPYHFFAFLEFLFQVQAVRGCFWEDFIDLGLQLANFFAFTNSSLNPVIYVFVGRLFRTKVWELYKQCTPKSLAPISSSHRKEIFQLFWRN
Nature of the experiment: Functional study on the bradykinin receptor 1 (B1R), Ca2+ fluorescence (Fluo-4) FLIPR/Novostar assay, hB1R cells. It counts as cell-based. Summed up: as §1

Setting [3] is: read-out: % inhibition (rat B1R) at 10 μM.
The mark [4] stands for this setting: CHO-K1, read-out: % inhibition (human B1R) at 10 μM.
[5] abbreviates: read-out: % Inhibition (r-B1R) at 10 μM.
Where [6] appears, read: CHO-K1, read-out: % Inhibition (h-B1R) at 10 μM.

Broadly, the inhibition is the change of the read-out against control, counted positive when it falls.

Like-named read-outs stand apart in the source and are kept apart here.

As to `Cc1cc(N2CCC(N(C)C(=O)c3ccc4c(c3)[C@H](NC(=O)c3cc(C)on3)CC4)CC2)ccn1` [Example H-95, 5-Methyl-N-[(1R)-6-[methyl-[1-(2 methyl-pyridin-4-yl)-piperidin-4-yl]-carbamoyl]-2,3-dihydro-1H-inden-1-yl]-isoxazole-3-carboxylic acid amide], the inhibition at 10 µM in experiment [1] (setting [3]) amounted to 104%; in experiment [2] (setting [4]), 100%.

Turning to `CN(C(=O)c1ccc2c(c1)C(N(C)C(=O)c1cncnc1)CC2)C1CCN(c2ccncc2)CC1` (stereo not shown) [CC_H-45, N-Methyl-N-[6-[methyl-(1-pyridin-4-yl-piperidin-4-yl)-carbamoyl]-2,3-dihydro-1H-inden-1-yl]-pyrimidine-5-carboxylic acid amide], the inhibition at 10 µM in experiment [1] (setting [5]) is 88%; in experiment [2] (setting [6]) it was 96%.

In the case of `CN(C(=O)c1ccc2c(c1)[C@H](NC(=O)c1ccccc1Cl)CC2)C1CCN(c2ccc(Cl)cc2)CC1` [Example H-54, (3R)-3-[(2-Chloro-benzoyl)amino]-N-[1-(4-chlorophenyl)-piperidin-4-yl]-N-methyl-2,3-dihydro-1H-indene-5-carboxylic acid amide], the inhibition at 10 µM in experiment [1] (setting [3]) was 93%; in experiment [2] (setting [4]), 29%.

`CN(C(=O)c1ccc2c(c1)[C@H](N1Cc3cccc(Cl)c3C1=O)CC2)C1CCN(c2ccncc2)CC1` [Example H-12, (3R)-3-(4-Chloro-3-oxo-1,2-dihydro-isoindol-2-yl)-N-methyl-N-(1-pyridin-4-yl-piperidin-4-yl)-2,3-dihydro-1H-indene-5-carboxylic acid amide]: the inhibition at 10 µM in experiment [1] (setting [3]) and in experiment [2] (setting [4]) was 100% each time.

Regarding `CC(C)N(C(=O)c1ccccc1Cl)[C@@H]1CCc2ccc(C(=O)N(C)C3CCN(c4ccncc4)CC3)cc21` [Example H-150, (3R)-3-[(2-Chloro-benzoyl)-isopropyl-amino]-N-methyl-N-(1-pyridin-4-yl-piperidin-4-yl)-2,3-dihydro-1H-indene-5-carboxylic acid amide], the inhibition at 10 µM in experiment [1] (setting [3]) amounted to 98%; in experiment [2] (setting [4]), 89%.

With `CN(C(=O)c1ccc2c(c1)CC[C@H]2N1Cc2cccc(Cl)c2C1=O)C1CCN(Cc2ccnc(N3CCCC3)c2)CC1` [Example H-53, (1R)-1-(4-Chloro-3-oxo-1,2-dihydro-isoindol-2-yl)-N-methyl-N-[1-[(2-pyrrolidin-1-yl-pyridin-4-yl)-methyl]-piperidin-4-yl]-2,3-dihydro-1H-indene-5-carboxylic acid amide], the inhibition at 10 µM in experiment [1] (setting [3]) amounted to 50%; in experiment [2] (setting [4]), 56%.

Consider `CN(C(=O)c1ccc2c(c1)[C@H](NC(=O)c1ccccc1Cl)CC2)C1CCN(c2nccn2C)CC1` [Example H-180, (3R)-3-[(2-Chloro-benzoyl)amino]-N-methyl-N-[1-(1-methyl-1H-imidazol-2-yl)-piperidin-4-yl]-2,3-dihydro-1H-indene-5-carboxylic acid amide], for which the results for the inhibition at 10 µM in experiment [1] (setting [3]) and in experiment [2] (setting [4]) were 104% and 89%, respectively.

Regarding `Cc1cc(N2CCC(N(C)C(=O)c3ccc4c(c3)[C@H](N(C(=O)c3ccccc3Cl)C(C)C)CC4)CC2)nc(C)n1` [Example H-144, (3R)-3-[(2-Chloro-benzoyl)-isopropyl-amino]-N-[1-(2,6-dimethyl-pyrimidin-4-yl)-piperidin-4-yl]-N-methyl-2,3-dihydro-1H-indene-5-carboxylic acid amide], the inhibition at 10 µM in experiment [1] (setting [3]) was determined as 77%; in experiment [2] (setting [4]), 91%.

On to `CN(C(=O)c1ccc2c(c1)C(NC(=O)c1cnccc1C(F)(F)F)CC2(C)C)C1CCN(c2ccncc2)CC1` (stereo not shown) [CC_H-12, N-[3,3-Dimethyl-6-[methyl-(1-pyridin-4-yl-piperidin-4-yl)-carbamoyl]-1,2-dihydro-inden-1-yl]-4-(trifluoromethyl)-pyridine-3-carboxylic acid amide], for which the inhibition at 10 µM in experiment [1] (setting [5]) is 104%; in experiment [2] (setting [6]), 100%.

For the compound `CN(C(=O)c1ccc2c(c1)C(NS(=O)(=O)c1c(Cl)cccc1C(F)(F)F)CC2)C1CCN(c2ccncc2)CC1` (stereo not shown) [CC_H-54, 3-[[[2-Chloro-6-(trifluoromethyl)-phenyl]sulfonyl]amino]-N-methyl-N-(1-pyridin-4-yl-piperidin-4-yl)-2,3-dihydro-1H-indene-5-carboxylic acid amide], the inhibition at 10 µM in experiment [1] (setting [5]) came to 104%; in experiment [2] (setting [6]), 100%.

Take `Cc1cc(N2CCC(N(C)C(=O)c3ccc4c(c3)[C@H](NC(=O)C3CCOCC3)CC4)CC2)ccn1` [Example H-88, N-[(1R)-6-[Methyl-[1-(2-methyl-pyridin-4-yl)-piperidin-4-yl]-carbamoyl]-2,3-dihydro-1H-inden-1-yl]-tetrahydro-pyran-4-carboxylic acid amide]: the inhibition at 10 µM came to 104% in experiment [1] (setting [3]) and 96% in experiment [2] (setting [4]).

Consider `Cc1cc(N2CCC(N(C)C(=O)c3ccc4c(c3)[C@H](NC(=O)C(C)(C)F)CC4)CC2)ccn1` [Example H-179, (3R)-3-[(2-Fluoro-2-methyl-propanoyl)amino]-N-methyl-N-[1-(2-methyl-pyridin-4-yl)-piperidin-4-yl]-2,3-dihydro-1H-indene-5-carboxylic acid amide], for which the values for the inhibition at 10 µM in experiment [1] (setting [3]) and in experiment [2] (setting [4]) were 100% and 94%, respectively.

As to `CN(C(=O)c1ccc2c(c1)[C@H](NC(=O)C(C)(C)c1ccccc1Cl)CC2)C1CCN(c2ccncc2)CC1` [Example H-58, (3R)-3-[[2-(2-Chlorophenyl)-2-methyl-propanoyl]amino]-N-methyl-N-(1-pyridin-4-yl-piperidin-4-yl)-2,3-dihydro-1H-indene-5-carboxylic acid amide], the inhibition at 10 µM in experiment [1] (setting [3]) was determined as 98%; in experiment [2] (setting [4]), 100%.

`CCN(C(=O)c1ccc2c(c1)[C@H](NC(=O)c1ccccc1Cl)CC2)C1CCN(c2ncnc3nc[nH]c23)CC1` [Example H-156, (3R)-3-[(2-Chloro-benzoyl)amino]-N-ethyl-N-[1-(7H-purin-6-yl)-piperidin-4-yl]-2,3-dihydro-1H-indene-5-carboxylic acid amide]: the figures for the inhibition at 10 µM in experiment [1] (setting [3]) and in experiment [2] (setting [4]) were 101% and 90%, respectively.

As for `CN(C(=O)c1ccc2c(c1)[C@H](NC(=O)c1ccccc1Cl)CC2)C1CCN(c2ccncc2)C(=O)C1` (stereo partly drawn) [Example H-182, (3R)-3-[(2-Chloro-benzoyl)amino]-N-methyl-N-(2-oxo-1-pyridin-4-yl-piperidin-4-yl)-2,3-dihydro-1H-indene-5-carboxylic acid amide], the inhibition at 10 µM was determined as 59% in experiment [1] (setting [3]) and 15% in experiment [2] (setting [4]).

`CN(C)c1ccc(N2CCC(N(C)C(=O)c3ccc4c(c3)[C@H](NC(=O)c3ccccc3Cl)CC4)CC2)cn1` [Example H-113, (3R)-3-[(2-Chloro-benzoyl)amino]-N-[1-(6-dimethylamino-pyridin-3-yl)-piperidin-4-yl]-N-methyl-2,3-dihydro-1H-indene-5-carboxylic acid amide]: the figures for the inhibition at 10 µM in experiment [1] (setting [3]) and in experiment [2] (setting [4]) were 100% and 98%, respectively.

Regarding `CN(C(=O)NC1CCc2ccc(C(=O)N(C)C3CCN(c4ccncc4)CC3)cc21)c1ccccc1Cl` (stereo not shown) [CC_H-44, 3-[[(2-Chlorophenyl)-methyl-carbamoyl]amino]-N-methyl-N-(1-pyridin-4-yl-piperidin-4-yl)-2,3-dihydro-1H-indene-5-carboxylic acid amide], the inhibition at 10 µM in experiment [1] (setting [5]) came out at 104%; in experiment [2] (setting [6]), 100%.
